Data published in the NIST ThermoML archive (doi:10.1021/je060271a).
Values joined by “and” are separate entries in the source; they are usually repeats but may differ in a detail not shown here. Equal entries are not always repeated.

Details: 323.15 K, Liquid, Vibrating tube method

CCCCCCCC(=O)OCC(COC(=O)CCCCCCC)(COC(=O)CCCCCCC)COC(=O)CCCCCCC [pentaerythritol tetraoctanoate]
Details	mass density
1092.7 kPa	941.3 kg/m3
1117.7 kPa	941.4 kg/m3
1150.2 kPa	941.4 kg/m3
1178 kPa	941.4 kg/m3
1206.8 kPa	941.4 kg/m3
1237.7 kPa	941.5 kg/m3
1275.6 kPa	941.4 kg/m3
1308.8 kPa	941.4 kg/m3
1344.2 kPa	941.6 kg/m3
1380.8 kPa	941.4 kg/m3
1426.8 kPa	941.7 kg/m3
1467.5 kPa	941.6 kg/m3
1510.3 kPa	941.7 kg/m3
1707.2 kPa	941.7 kg/m3
1720.8 kPa	941.6 kg/m3
1734.6 kPa	941.9 kg/m3
1749 kPa	941.8 kg/m3
1766.8 kPa	941.8 kg/m3
1780.8 kPa	941.9 kg/m3
1795.7 kPa	941.8 kg/m3
1810.5 kPa	941.9 kg/m3
1828.9 kPa	941.8 kg/m3
1844.2 kPa	941.8 kg/m3
1859.6 kPa	942 kg/m3
1875.8 kPa	941.8 kg/m3
1895.2 kPa	942 kg/m3
1915.1 kPa	941.9 kg/m3
1932.3 kPa	942 kg/m3
1947.8 kPa	942 kg/m3
1957.8 kPa	942 kg/m3
1963.7 kPa	942 kg/m3
1968.9 kPa	942 kg/m3
1974 kPa	942 kg/m3
1987.2 kPa	942.1 kg/m3
2016.7 kPa	941.9 kg/m3
2142.1 kPa	942 kg/m3
2259.4 kPa	942.1 kg/m3
2339.7 kPa	942.1 kg/m3
2352.9 kPa	942.3 kg/m3
2366.5 kPa	942.3 kg/m3
2382.6 kPa	942.2 kg/m3
2409.7 kPa	942.5 kg/m3
2426.8 kPa	942.3 kg/m3
2441.1 kPa	942.3 kg/m3
2454.6 kPa	942.4 kg/m3
2468.6 kPa	942.2 kg/m3
2486 kPa	942.4 kg/m3
2500.4 kPa	942.4 kg/m3
2515.6 kPa	942.2 kg/m3
2533.2 kPa	942.4 kg/m3
2546 kPa	942.5 kg/m3
2554.1 kPa	942.4 kg/m3
2597 kPa	942.4 kg/m3
2605 kPa	942.4 kg/m3
2612.9 kPa	942.4 kg/m3
2622.5 kPa	942.4 kg/m3
2630.8 kPa	942.4 kg/m3
2639.1 kPa	942.4 kg/m3
2648.3 kPa	942.4 kg/m3
2656.5 kPa	942.4 kg/m3
2664.8 kPa	942.5 kg/m3
2674.9 kPa	942.5 kg/m3
2683.4 kPa	942.5 kg/m3
2692.2 kPa	942.4 kg/m3
2701.1 kPa	942.4 kg/m3
2709.7 kPa	942.4 kg/m3
2720 kPa	942.5 kg/m3
2728.5 kPa	942.4 kg/m3
2737.3 kPa	942.5 kg/m3
2746.3 kPa	942.5 kg/m3
2756.7 kPa	942.6 kg/m3
2765.4 kPa	942.6 kg/m3
2775.6 kPa	942.5 kg/m3
2784.8 kPa	942.5 kg/m3
2793.7 kPa	942.6 kg/m3
2803.2 kPa	942.6 kg/m3
2814.5 kPa	942.5 kg/m3
2821.9 kPa	942.6 kg/m3
2832.7 kPa	942.6 kg/m3
2841.7 kPa	942.5 kg/m3
2852.6 kPa	942.6 kg/m3
2862.2 kPa	942.5 kg/m3
2871.5 kPa	942.6 kg/m3
2880.9 kPa	942.6 kg/m3
2892.2 kPa	942.6 kg/m3
2901.4 kPa	942.6 kg/m3
2911.2 kPa	942.6 kg/m3
2922.7 kPa	942.6 kg/m3
2932.2 kPa	942.6 kg/m3
2944 kPa	942.6 kg/m3
2953.7 kPa	942.6 kg/m3
2963.9 kPa	942.6 kg/m3
2974 kPa	942.7 kg/m3
2983.7 kPa	942.7 kg/m3
2995.7 kPa	942.7 kg/m3
3005.6 kPa	942.6 kg/m3
3016 kPa	942.6 kg/m3
3027.9 kPa	942.7 kg/m3
3038.3 kPa	942.7 kg/m3
3048.7 kPa	942.7 kg/m3
3059.1 kPa	942.7 kg/m3
3071.6 kPa	942.8 kg/m3
3082 kPa	942.7 kg/m3
3092.6 kPa	942.7 kg/m3
3105.1 kPa	942.7 kg/m3
3115.6 kPa	942.8 kg/m3
3128.6 kPa	942.7 kg/m3
3139.4 kPa	942.6 kg/m3
3150.3 kPa	942.7 kg/m3
3159 kPa	942.7 kg/m3
3173.9 kPa	942.8 kg/m3
3185.2 kPa	942.8 kg/m3
3196.4 kPa	942.8 kg/m3
3207.5 kPa	942.8 kg/m3
3220.5 kPa	942.8 kg/m3
3232.3 kPa	942.8 kg/m3
3243.6 kPa	942.8 kg/m3
3257.1 kPa	942.9 kg/m3
3268.7 kPa	942.8 kg/m3
3280 kPa	942.8 kg/m3
3291.9 kPa	942.9 kg/m3
3306.1 kPa	942.9 kg/m3
3317.8 kPa	942.8 kg/m3
3329.5 kPa	942.9 kg/m3
3343.6 kPa	942.8 kg/m3
3355.4 kPa	942.9 kg/m3
3367.5 kPa	943 kg/m3
3380.2 kPa	943 kg/m3
3392.6 kPa	943.1 kg/m3
3407.2 kPa	943 kg/m3
3419.3 kPa	942.9 kg/m3
3431.8 kPa	943.1 kg/m3
3446.7 kPa	943 kg/m3
3459.2 kPa	942.9 kg/m3
3469.6 kPa	942.9 kg/m3
3479.3 kPa	943 kg/m3
3494.5 kPa	942.9 kg/m3
3507.4 kPa	943 kg/m3
3540.6 kPa	943 kg/m3
3553.8 kPa	942.9 kg/m3
3567 kPa	943.1 kg/m3
3580 kPa	943.1 kg/m3
3710.3 kPa	943.1 kg/m3
3724.8 kPa	943.2 kg/m3
3743.3 kPa	943 kg/m3
3756.8 kPa	943.3 kg/m3
3771.5 kPa	943.2 kg/m3
3786.1 kPa	943.3 kg/m3
3800.8 kPa	943.3 kg/m3
3818.1 kPa	943.3 kg/m3
3832.3 kPa	943.3 kg/m3
3846.9 kPa	943.3 kg/m3
3894.9 kPa	943.3 kg/m3
4078 kPa	943.4 kg/m3
4095.3 kPa	943.5 kg/m3
4116.3 kPa	943.5 kg/m3
4133.4 kPa	943.5 kg/m3
4151.5 kPa	943.4 kg/m3
4169.5 kPa	943.5 kg/m3
4190.6 kPa	943.5 kg/m3
4208.3 kPa	943.5 kg/m3
4239.4 kPa	943.7 kg/m3
4240.5 kPa	943.6 kg/m3
4244.3 kPa	943.6 kg/m3
4247.1 kPa	943.6 kg/m3
4247.4 kPa	943.5 kg/m3
4247.6 kPa	943.5 kg/m3
4248.6 kPa	943.5 kg/m3
4249.3 kPa	943.5 kg/m3 and 943.6 kg/m3
4250.7 kPa	943.7 kg/m3
4258.1 kPa	943.6 kg/m3
4267.5 kPa	943.7 kg/m3
4277.9 kPa	943.5 kg/m3
4287.4 kPa	943.5 kg/m3
4298 kPa	943.6 kg/m3
4315.8 kPa	943.6 kg/m3
4334.7 kPa	943.5 kg/m3
4353.7 kPa	943.6 kg/m3
4376.6 kPa	943.5 kg/m3
4396.7 kPa	943.6 kg/m3
4416.4 kPa	943.8 kg/m3
4436.5 kPa	943.7 kg/m3
4522.7 kPa	943.7 kg/m3
4548.7 kPa	943.7 kg/m3
4571 kPa	943.8 kg/m3
4604.4 kPa	943.8 kg/m3
4618.8 kPa	943.7 kg/m3
4647.7 kPa	943.8 kg/m3
4665.2 kPa	943.8 kg/m3
4679.7 kPa	943.8 kg/m3
4709.7 kPa	943.8 kg/m3
4727.3 kPa	943.9 kg/m3
4891.1 kPa	943.9 kg/m3
4907.3 kPa	944 kg/m3
4923.3 kPa	944 kg/m3
4942.8 kPa	944.1 kg/m3
4959.8 kPa	943.9 kg/m3
4976.6 kPa	944 kg/m3
4996.1 kPa	944 kg/m3
5013.6 kPa	944 kg/m3
5030.7 kPa	944 kg/m3
5047.7 kPa	944.1 kg/m3
5068.6 kPa	944.1 kg/m3
5086.9 kPa	944.1 kg/m3
5104.6 kPa	944.2 kg/m3
5218.8 kPa	944.1 kg/m3
5237.3 kPa	944.2 kg/m3
5255.9 kPa	944.1 kg/m3
5277.4 kPa	944 kg/m3
5296.3 kPa	944.3 kg/m3
5316.3 kPa	944.2 kg/m3
5355 kPa	944.3 kg/m3
5378.7 kPa	944.3 kg/m3
5681.4 kPa	944.5 kg/m3
5729.8 kPa	944.6 kg/m3
5752.1 kPa	944.5 kg/m3
5847.4 kPa	944.5 kg/m3
5898.9 kPa	944.7 kg/m3
5922.8 kPa	944.6 kg/m3
5946.5 kPa	944.7 kg/m3
5970.5 kPa	944.6 kg/m3
5999.4 kPa	944.7 kg/m3
6024.1 kPa	944.7 kg/m3
6049 kPa	944.6 kg/m3
6104.5 kPa	944.9 kg/m3
6129.2 kPa	944.8 kg/m3
6154.4 kPa	944.8 kg/m3
6185.7 kPa	944.9 kg/m3
6211.6 kPa	944.7 kg/m3
6413.9 kPa	945 kg/m3
6442.7 kPa	945.1 kg/m3
6473 kPa	945 kg/m3
6509.3 kPa	944.9 kg/m3
6534.3 kPa	945 kg/m3
6561.1 kPa	945 kg/m3
6584.4 kPa	945 kg/m3
6606.7 kPa	945 kg/m3
6623 kPa	945.2 kg/m3
6640.9 kPa	945.1 kg/m3
6655.8 kPa	945.2 kg/m3
6670.8 kPa	945.1 kg/m3
6686 kPa	945.1 kg/m3
6704.2 kPa	945 kg/m3
6719.4 kPa	945.2 kg/m3
6735.1 kPa	945.2 kg/m3
6749.8 kPa	945.1 kg/m3
6768.8 kPa	945.2 kg/m3
6784.3 kPa	945.2 kg/m3
6800.4 kPa	945.2 kg/m3
6817 kPa	945.2 kg/m3
6835.8 kPa	945.3 kg/m3
6851.9 kPa	945.3 kg/m3
6867.4 kPa	945.1 kg/m3
6883.1 kPa	945.3 kg/m3
6902.5 kPa	945.3 kg/m3
6918.5 kPa	945.3 kg/m3
6935.1 kPa	945.2 kg/m3
6954.5 kPa	945.3 kg/m3
6971.2 kPa	945.4 kg/m3
6987.8 kPa	945.3 kg/m3
7004.7 kPa	945.4 kg/m3
7025.5 kPa	945.3 kg/m3
7043.2 kPa	945.5 kg/m3
7059.8 kPa	945.4 kg/m3
7076.5 kPa	945.4 kg/m3
7096.9 kPa	945.4 kg/m3
7113.8 kPa	945.4 kg/m3
7131.3 kPa	945.5 kg/m3
7148.4 kPa	945.5 kg/m3
7169.6 kPa	945.5 kg/m3
7187.1 kPa	945.5 kg/m3
7204 kPa	945.6 kg/m3
7225.1 kPa	945.5 kg/m3
7243.2 kPa	945.4 kg/m3
7262.9 kPa	945.5 kg/m3
7281.3 kPa	945.5 kg/m3
7299.6 kPa	945.5 kg/m3
7320.9 kPa	945.6 kg/m3
7338.5 kPa	945.7 kg/m3
7357.3 kPa	945.6 kg/m3
7379.6 kPa	945.5 kg/m3
7397.7 kPa	945.7 kg/m3
7416.4 kPa	945.6 kg/m3
7435.3 kPa	945.6 kg/m3
7457.8 kPa	945.7 kg/m3
7476.9 kPa	945.7 kg/m3
7496.1 kPa	945.6 kg/m3
7515.6 kPa	945.7 kg/m3
7538.6 kPa	945.7 kg/m3
7558.1 kPa	945.7 kg/m3
7577.6 kPa	945.6 kg/m3
7601.3 kPa	945.7 kg/m3
7621.1 kPa	945.8 kg/m3
7640.6 kPa	945.7 kg/m3
7660.5 kPa	945.8 kg/m3
